Tested on: HL60 cells
Assay: Anti-cancer activity test, MTT, HL60 cells
Format: cell-based
Details: Homo sapiens, HL-60, culturing for 72 hours
Protocol: Cell culture medium: Roswell medium RPMI-1640 (+L-glutamine) was added with 10% fetal bovine serum, with 100 units penicillin and 100 μg streptomycin per ml.
Cell culture conditions: 5% CO2, 95% humidity, cultured at 37° C. constant temperature.
2. Cell Inoculation, Drugs Dosing and Culture.
Logarithmic growth phase HL-60, human chronic myeloid leukemia cells (K562), human esophageal squamous cell carcinoma cells (KYSE510), human large cell lung cancer cells (H460) were inoculated into 96-well cell culture plates, 2×10^4 cells per well. Different concentrations of active compounds (dissolved in dimethyl sulfoxide (DMSO) stock solution) were added, so that the final concentration of DMSO was 0.2%, and the control group was DMSO. Each group was repeated three times.
After culturing for 72 hours, 20 µL of thiazolyl blue (MTT) (5 mg/ml, ready for use, dissolved in 1×PBS for cell culture) was added to each well, and incubated at 37° C. for 3 hours.
The 96-well cell culture plates were centrifuged at 1000 rpm for 10 minutes. The supernatant was discarded; 200 μL of DMSO was added to each well and the plate was shaken for 5 minutes.
The absorbance of each well was detected at 570 nm wavelength with a microplate reader, and the IC50 of the compounds was calculated.

| Compound | IC50 [µM] |
| --- | --- |
| CC(C)C[C@H](NC(=O)[C@H](CC(C)C)NC(=O)Cn1c2ccccc2c2cnccc21)B1O[C@@H]2C[C@@H]3C[C@@H](C3(C)C)[C@]2(C)O1 [Compound A58] | 0.1 to 0.5 |
| CC(C)C[C@H](NC(=O)[C@H](CC(C)C)NC(=O)Cn1c2ccccc2c(=O)c2ccccc21)B1O[C@@H]2C[C@@H]3C[C@@H](C3(C)C)[C@]2(C)O1 [Compound A41] | 0.5 to 2 |
| CC(C)C[C@H](NC(=O)[C@H](CC(C)C)N(C)C(=O)OCC1c2ccccc2-c2ccccc21)B1O[C@@H]2C[C@@H]3C[C@@H](C3(C)C)[C@]2(C)O1 [Compound A50] | 2 to 10 |
| CC(C)C[C@H](NC(=O)[C@H](C)NC(=O)c1cccc2c1C(=O)N(C1CCC(=O)NC1=O)C2=O)B1O[C@@H]2C[C@@H]3C[C@@H](C3(C)C)[C@]2(C)O1 (stereo partly drawn) [Compound A54] | 2 to 10 |
| CC(C)C[C@H](NC(=O)[C@H](CC(C)C)NC(=O)Cn1c2ncccc2c2cccnc21)B(O)O [Compound A107] | 0.5 to 2 |
| CC(C)C[C@H](NC(=O)[C@H](Cc1c[nH]c2ccccc12)NCc1ccccc1)B(O)O [Compound A79] | 0.1 to 0.5 |
| CC(C)C[C@H](NC(=O)[C@H](Cc1c[nH]c2ccccc12)NC(=O)OCC1c2ccccc2-c2ccccc21)B1O[C@@H]2C[C@@H]3C[C@@H](C3(C)C)[C@]2(C)O1 [Compound A18] | < 0.1 |
| CC(C)C[C@H](NC(=O)[C@@H](C)NC(=O)OCC1c2ccccc2-c2ccccc21)B(O)O [Compound A85] | 0.1 to 0.5 |
| CC(C)C[C@H](NC(=O)[C@H](Cc1c[nH]c2ccccc12)NC(=O)c1ccncc1)B(O)O [Compound A72] | 0.5 to 2 |
| CC(C)C[C@H](NC(=O)[C@H](Cc1c[nH]c2ccccc12)NC(=O)CC1CC1)B(O)O [Compound A70] | < 0.1 |
| CC(C)C[C@H](NC(=O)[C@H](CC(C)C)NC(=O)CN(c1ccccc1)c1ccccc1)B1O[C@@H]2C[C@@H]3C[C@@H](C3(C)C)[C@]2(C)O1 [Compound A55] | 0.5 to 2 |
| CC(C)C[C@H](NC(=O)[C@H](Cc1c[nH]c2ccccc12)NC(=O)CC1CCCCC1)B1O[C@@H]2C[C@@H]3C[C@@H](C3(C)C)[C@]2(C)O1 [Compound A29] | < 0.1 |
| CC(C)C[C@H](NC(=O)[C@H](CC(C)C)NC(=O)Cn1c2ccccc2c2ccc(C#N)cc21)B1O[C@@H]2C[C@@H]3C[C@@H](C3(C)C)[C@]2(C)O1 [Compound A61] | 0.1 to 0.5 |
| CC(C)C[C@H](NC(=O)[C@H](C)NC(=O)c1ccc2c(c1)C(=O)N(C1CCC(=O)NC1=O)C2=O)B1O[C@@H]2C[C@@H]3C[C@@H](C3(C)C)[C@]2(C)O1 (stereo partly drawn) [Compound A53] | 2 to 10 |
| CC(C)C[C@H](NC(=O)[C@H](Cc1c[nH]c2ccccc12)NC(=O)CC1CCCC1)B1O[C@@H]2C[C@@H]3C[C@@H](C3(C)C)[C@]2(C)O1 [Compound A30] | < 0.1 |
| CC(C)C[C@H](NC(=O)[C@H](CC(C)C)NC(=O)Cn1c2ccccc2c2cccnc21)B1O[C@@H]2C[C@@H]3C[C@@H](C3(C)C)[C@]2(C)O1 [Compound A56] | 0.5 to 2 |
| COC(=O)C[C@H](NC(=O)CC1c2ccccc2-c2ccccc21)C(=O)N[C@@H](CC(C)C)B(O)O [Compound A80] | < 0.1 |
| CC(C)C[C@H](NC(=O)[C@H](Cc1c[nH]c2ccccc12)NC(=O)OC1CCCC1)B(O)O [Compound A78] | < 0.1 |
| CC(C)C[C@H](NC(=O)[C@H](Cc1cn(C(=O)OC(C)(C)C)c2ccccc12)NC(=O)C12CC3CC(C1)C(=O)C(C3)C2)B1O[C@@H]2C[C@@H]3C[C@@H](C3(C)C)[C@]2(C)O1 [Compound A28] | 0.5 to 2 |
| CC(C)C[C@H](NC(=O)[C@H](CC(C)C)NC(=O)Cn1c2ccccc2c2cc(F)ccc21)B(O)O [Compound A98] | 0.5 to 2 |
| CC(C)C[C@H](NC(=O)[C@H](CC(=O)NC(c1ccccc1)(c1ccccc1)c1ccccc1)NC(=O)OC(C)(C)C)B1O[C@@H]2C[C@@H]3C[C@@H](C3(C)C)[C@]2(C)O1 [Compound A19] | 0.1 to 0.5 |
| CC(C)C[C@H](NC(=O)OCC1c2ccccc2-c2ccccc21)C(=O)N1CCC[C@H]1B1O[C@@H]2C[C@@H]3C[C@@H](C3(C)C)[C@]2(C)O1 [Compound A49] | 2 to 10 |
| CC(C)C[C@H](NC(=O)[C@H](C)NC(=O)c1ccc2c(c1)C(=O)N(C1CCC(=O)NC1=O)C2=O)B(O)O (stereo partly drawn) [Compound A90] | 2 to 10 |
| CC(C)C[C@H](NC(=O)[C@@H](NC(=O)OCC1c2ccccc2-c2ccccc21)[C@@H](C)O)B1O[C@@H]2C[C@@H]3C[C@@H](C3(C)C)[C@]2(C)O1 [Compound A11] | 0.1 to 0.5 |
| CC(C)C[C@H](NC(=O)[C@H](Cc1c[nH]c2ccccc12)NC(=O)CC12CC3CC(CC(C3)C1)C2)B(O)O [Compound A68] | 0.1 to 0.5 |
| COc1ccc2cc(C(=O)N[C@@H](Cc3c[nH]c4ccccc34)C(=O)N[C@@H](CC(C)C)B3O[C@@H]4C[C@@H]5C[C@@H](C5(C)C)[C@]4(C)O3)ccc2c1 [Compound A52] | < 0.1 |

| Compound | IC50 [µM] |
| --- | --- |
| CC(C)C[C@H](NC(=O)[C@H](C)NC(=O)c1cccc2c1C(=O)N(C1CCC(=O)NC1=O)C2=O)B(O)O (stereo partly drawn) [Compound A91] | 2 to 10 |
| CC(C)C[C@H](NC(=O)[C@H](C)NC(=O)OCC1c2ccccc2-c2ccccc21)B(O)O [Compound A86] | < 0.1 |
| CC(C)C[C@H](NC(=O)[C@H](Cc1c[nH]c2ccccc12)NC(=O)OCc1ccccc1)B(O)O [Compound A66] | < 0.1 |
| CC(C)C[C@H](NC(=O)[C@H](CC(C)C)NC(=O)Cn1c2ccc(Cl)cc2c2cc(Cl)ccc21)B(O)O [Compound A97] | 0.5 to 2 |
| CC(C)C[C@H](NC(=O)[C@H](Cc1c[nH]c2ccccc12)NS(=O)(=O)Cc1ccccc1)B(O)O [Compound A71] | < 0.1 |
| CC(C)C[C@H](NC(=O)[C@H](Cc1c[nH]c2ccccc12)NC(=O)c1nc2ccccc2s1)B1O[C@@H]2C[C@@H]3C[C@@H](C3(C)C)[C@]2(C)O1 [Compound A34] | 0.1 to 0.5 |
| CC(C)C[C@H](NC(=O)[C@H](CC(C)C)NC(=O)CC1c2ccccc2-c2ccccc21)B1O[C@@H]2C[C@@H]3C[C@@H](C3(C)C)[C@]2(C)O1 [Compound A24] | < 0.1 |
| CC(C)C[C@H](NC(=O)[C@H](CC(C)C)NC(=O)Cn1c2ccccc2c2ccc(C#N)cc21)B(O)O [Compound A101] | 0.1 to 0.5 |
| CC(C)C[C@H](NC(=O)[C@H](CC(C)C)NC(=O)Cn1c2ccccc2c2cccnc21)B(O)O [Compound A94] | 0.5 to 2 |
| CC(C)C[C@H](NC(=O)[C@H](Cc1c[nH]c2ccccc12)NS(=O)(=O)Cc1ccccc1)B1O[C@@H]2C[C@@H]3C[C@@H](C3(C)C)[C@]2(C)O1 [Compound A32] | < 0.1 |
| COc1ccc2c3ccccc3n(CC(=O)N[C@@H](CC(C)C)C(=O)N[C@@H](CC(C)C)B3O[C@@H]4C[C@@H]5C[C@@H](C5(C)C)[C@]4(C)O3)c2c1 [Compound A57] | 0.5 to 2 |
| CC(C)C[C@H](NC(=O)[C@H](Cc1c[nH]c2ccccc12)NCc1ccccc1)B1O[C@@H]2C[C@@H]3C[C@@H](C3(C)C)[C@]2(C)O1 [Compound A46] | 0.1 to 0.5 |
| CC(C)C[C@H](NC(=O)[C@H](CC(C)C)NC(=O)NCC1c2ccccc2-c2ccccc21)B1O[C@@H]2C[C@@H]3C[C@@H](C3(C)C)[C@]2(C)O1 [Compound A43] | < 0.1 |
| COc1ccc2cc(C(=O)N[C@@H](Cc3c[nH]c4ccccc34)C(=O)N[C@@H](CC(C)C)B(O)O)ccc2c1 [Compound A87] | < 0.1 |
| CC(C)C[C@H](NC(=O)[C@H](Cc1c[nH]c2ccccc12)NC(=O)NC1CCCC1)B(O)O [Compound A77] | < 0.1 |
| CC(C)C[C@H](NC(=O)[C@H](Cc1c[nH]c2ccccc12)NC(=O)c1ccc2ncccc2c1)B1O[C@@H]2C[C@@H]3C[C@@H](C3(C)C)[C@]2(C)O1 [Compound A35] | 0.1 to 0.5 |
| CC(C)C[C@H](NC(=O)[C@H](CC(C)C)NC(=O)NC1c2ccccc2-c2ccccc21)B1O[C@@H]2C[C@@H]3C[C@@H](C3(C)C)[C@]2(C)O1 [Compound A42] | < 0.1 |
| CC(C)C[C@H](NC(=O)[C@H](CC(C)C)NC(=O)Cn1c2ccccc2c2ccc(O)cc21)B(O)O [Compound A106] | 0.1 to 0.5 |
| CC(C)C[C@H](NC(=O)[C@H](Cc1c[nH]c2ccccc12)NC(=O)c1nc2ccccc2s1)B(O)O [Compound A73] | < 0.1 |
| CC(C)C[C@H](NC(=O)[C@@H](CC(=O)NC(c1ccccc1)(c1ccccc1)c1ccccc1)NC(=O)OCC1c2ccccc2-c2ccccc21)B1O[C@@H]2C[C@@H]3C[C@@H](C3(C)C)[C@]2(C)O1 [Compound A9] | 0.1 to 0.5 |
| CC(C)C[C@H](NC(=O)[C@H](Cc1c[nH]c2ccccc12)NC(=O)C12CC3CC(CC(C3)C1)C2)B1O[C@@H]2C[C@@H]3C[C@@H](C3(C)C)[C@]2(C)O1 [Compound A26] | 0.5 to 2 |
| CC(C)C[C@H](NC(=O)[C@H](Cc1c[nH]c2ccccc12)NC(=O)CC1CC1)B1O[C@@H]2C[C@@H]3C[C@@H](C3(C)C)[C@]2(C)O1 [Compound A31] | < 0.1 |
| CNC(=O)C[C@H](NC(=O)CC1c2ccccc2-c2ccccc21)C(=O)N[C@@H](CC(C)C)B1O[C@@H]2C[C@@H]3C[C@@H](C3(C)C)[C@]2(C)O1 [Compound A48] | < 0.1 |
| CC(C)C[C@H](NC(=O)[C@H](CC(=O)NC(c1ccccc1)(c1ccccc1)c1ccccc1)NC(=O)OCC1c2ccccc2-c2ccccc21)B1O[C@@H]2C[C@@H]3C[C@@H](C3(C)C)[C@]2(C)O1 [Compound A1] | < 0.1 |
| CC(C)C[C@H](NC(=O)[C@H](CC(C)C)NC(=O)Cn1c2ccccc2c2cnccc21)B(O)O [Compound A96] | 0.1 to 0.5 |
